The NIST ThermoML archive (doi:10.1021/je060313v)
Numbers after ± are expanded uncertainties.

Tests used:
[1] = for speed of sound / mass density / viscosity: 101.33 kPa, Liquid; for speed of sound: Sing-around technique in a fixed-path interferometer; for mass density: Vibrating tube method; for surface tension liquid-gas: Drop weight; for viscosity: Capillary tube (Ostwald / Ubbelohde) method
[2] = refractive index (Na D-line) (dimensionless); details: 101.33 kPa, Liquid, Standard Abbe refractometry

CCCCn1cc[n+](C)c1.COS(=O)(=O)[O-] [1-butyl-3-methylimidazolium methyl sulfate]
speed of sound ([1]; 278.15 K): 1708.3 ± 5.2 m/s | mass density ([1]; 278.15 K): 1225.84 ± 8.2 kg/m3 | surface tension liquid-gas ([1]; 283.15 K): 45.9 ± 1.2 mN/m | speed of sound ([1]; 283.15 K): 1695.8 ± 5.2 m/s | mass density ([1]; 283.15 K): 1222.44 ± 8.1 kg/m3 | surface tension liquid-gas ([1]; 288.15 K): 45 ± 1.1 mN/m | speed of sound ([1]; 288.15 K): 1683.4 ± 5.2 m/s | mass density ([1]; 288.15 K): 1219.03 ± 8.1 kg/m3 | surface tension liquid-gas ([1]; 293.15 K): 44.1 ± 1.1 mN/m | viscosity ([1]; 293.15 K): 288.99 ± 14 mPa·s | speed of sound ([1]; 293.15 K): 1670.9 ± 5.2 m/s | mass density ([1]; 293.15 K): 1215.62 ± 8 kg/m3 | surface tension liquid-gas ([1]; 298.15 K): 43.3 ± 1.1 mN/m | viscosity ([1]; 298.15 K): 213.19 ± 9 mPa·s | speed of sound ([1]; 298.15 K): 1658.4 ± 5.2 m/s | mass density ([1]; 298.15 K): 1212.22 ± 8 kg/m3 | surface tension liquid-gas ([1]; 303.15 K): 42.8 ± 1.1 mN/m | viscosity ([1]; 303.15 K): 160.93 ± 6 mPa·s | speed of sound ([1]; 303.15 K): 1646 ± 5.2 m/s | mass density ([1]; 303.15 K): 1208.81 ± 8 kg/m3 | surface tension liquid-gas ([1]; 308.15 K): 42.3 ± 1.1 mN/m | viscosity ([1]; 308.15 K): 123.73 ± 4.2 mPa·s | speed of sound ([1]; 308.15 K): 1633.5 ± 5.2 m/s | mass density ([1]; 308.15 K): 1205.41 ± 7.9 kg/m3 | surface tension liquid-gas ([1]; 313.15 K): 41.8 ± 1.1 mN/m | viscosity ([1]; 313.15 K): 96.83 ± 3 mPa·s | speed of sound ([1]; 313.15 K): 1621.1 ± 5.2 m/s | mass density ([1]; 313.15 K): 1202.04 ± 7.9 kg/m3 | viscosity ([1]; 318.15 K): 77.08 ± 2.2 mPa·s | speed of sound ([1]; 318.15 K): 1608.6 ± 5.2 m/s | mass density ([1]; 318.15 K): 1198.66 ± 7.8 kg/m3 | viscosity ([1]; 323.15 K): 62.22 ± 1.6 mPa·s | speed of sound ([1]; 323.15 K): 1596.1 ± 5.2 m/s | mass density ([1]; 323.15 K): 1195.34 ± 7.8 kg/m3 | speed of sound ([1]; 328.15 K): 1583.7 ± 5.2 m/s | mass density ([1]; 328.15 K): 1192.02 ± 7.7 kg/m3 | viscosity ([1]; 333.15 K): 42.24 ± 1.1 mPa·s | speed of sound ([1]; 333.15 K): 1571.2 ± 5.2 m/s | mass density ([1]; 333.15 K): 1188.73 ± 7.7 kg/m3 | speed of sound ([1]; 338.15 K): 1558.8 ± 5.2 m/s | mass density ([1]; 338.15 K): 1185.45 ± 7.6 kg/m3 | viscosity ([1]; 343.15 K): 29.99 ± 0.8 mPa·s | speed of sound ([1]; 343.15 K): 1546.3 ± 5.2 m/s | mass density ([1]; 343.15 K): 1182.19 ± 7.6 kg/m3 | refractive index ([2]; 283.15 K): 1.48351 ± 0.0011 | refractive index ([2]; 288.15 K): 1.48213 ± 0.0011 | refractive index ([2]; 293.15 K): 1.48076 ± 0.0011 | refractive index ([2]; 298.15 K): 1.47942 ± 0.0011 | refractive index ([2]; 303.15 K): 1.47805 ± 0.0011 | refractive index ([2]; 308.15 K): 1.47671 ± 0.0011 | refractive index ([2]; 313.15 K): 1.47536 ± 0.0011 | refractive index ([2]; 318.15 K): 1.474 ± 0.0011 | refractive index ([2]; 323.15 K): 1.47266 ± 0.0011 | refractive index ([2]; 328.15 K): 1.47132 ± 0.0011 | refractive index ([2]; 333.15 K): 1.47 ± 0.0011 | refractive index ([2]; 338.15 K): 1.46864 ± 0.0011 | refractive index ([2]; 343.15 K): 1.46725 ± 0.0011
